Source: ChEMBL document CHEMBL1641502, “The identification of substituted benzothiophene derivatives as PGE(2) subtype 4 receptor antagonists: From acid to non-acid” (Bioorg Med Chem Lett, 2011)

Assays:
[1] = target: T1, Prostaglandin E2 receptor EP4 subtype (Homo sapiens, UniProt P35408); assay: Binding affinity to EP4 receptor
[2] = target: T1, Prostaglandin E2 receptor EP4 subtype; assay: Binding affinity to EP4 receptor in presence of 10% HSA
[3] = target: T2, Prostaglandin E2 receptor EP1 subtype (Homo sapiens, UniProt P34995); assay: Binding affinity to EP1 receptor
T2 sequence (P34995 whole entry): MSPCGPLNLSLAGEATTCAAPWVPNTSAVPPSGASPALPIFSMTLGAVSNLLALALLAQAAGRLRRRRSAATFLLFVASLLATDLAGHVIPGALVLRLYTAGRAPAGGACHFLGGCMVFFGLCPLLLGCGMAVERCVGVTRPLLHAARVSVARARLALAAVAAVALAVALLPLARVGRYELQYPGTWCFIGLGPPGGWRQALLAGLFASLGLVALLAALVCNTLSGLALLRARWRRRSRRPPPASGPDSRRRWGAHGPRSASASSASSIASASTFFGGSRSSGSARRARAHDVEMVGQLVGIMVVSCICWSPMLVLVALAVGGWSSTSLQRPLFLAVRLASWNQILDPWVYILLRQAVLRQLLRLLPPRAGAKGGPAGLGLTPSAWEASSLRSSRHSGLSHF

[4] = target: Prostaglandin E2 receptor EP2 subtype (Homo sapiens, UniProt P43116); assay: Binding affinity to EP2 receptor
[5] = target: T3, Prostaglandin E2 receptor EP3 subtype (Homo sapiens, UniProt P43115); assay: Binding affinity to EP3 receptor
T3 sequence (P43115 whole entry): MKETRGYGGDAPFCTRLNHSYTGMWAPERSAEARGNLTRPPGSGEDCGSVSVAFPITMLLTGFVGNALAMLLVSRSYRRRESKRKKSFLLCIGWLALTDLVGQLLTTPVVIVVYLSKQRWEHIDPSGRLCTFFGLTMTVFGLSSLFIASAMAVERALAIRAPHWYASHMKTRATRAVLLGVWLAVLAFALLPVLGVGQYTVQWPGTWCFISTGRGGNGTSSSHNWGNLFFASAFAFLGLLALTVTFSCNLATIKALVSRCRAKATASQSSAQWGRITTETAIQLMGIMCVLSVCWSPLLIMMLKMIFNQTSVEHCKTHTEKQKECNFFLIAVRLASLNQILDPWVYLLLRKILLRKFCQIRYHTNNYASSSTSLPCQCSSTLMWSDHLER

[6] = target: T4, Prostaglandin D2 receptor 2 (Homo sapiens, UniProt Q9Y5Y4); assay: Binding affinity to CRTH2 receptor
T4 sequence (Q9Y5Y4 whole entry): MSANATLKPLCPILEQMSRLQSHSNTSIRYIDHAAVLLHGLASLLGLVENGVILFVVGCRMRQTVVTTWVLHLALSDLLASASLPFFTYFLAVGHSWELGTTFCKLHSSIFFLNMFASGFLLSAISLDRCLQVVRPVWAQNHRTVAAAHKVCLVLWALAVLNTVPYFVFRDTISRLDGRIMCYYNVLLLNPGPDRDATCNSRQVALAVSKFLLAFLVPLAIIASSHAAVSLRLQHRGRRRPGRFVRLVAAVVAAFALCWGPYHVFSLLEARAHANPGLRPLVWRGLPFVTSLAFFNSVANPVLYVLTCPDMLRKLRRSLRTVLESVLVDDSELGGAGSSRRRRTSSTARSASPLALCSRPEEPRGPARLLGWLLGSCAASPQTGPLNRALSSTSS

[7] = Binding affinity to DP receptor
[8] = target: Prostaglandin F2-alpha receptor (Homo sapiens, UniProt P43088); assay: Binding affinity to FP receptor
[9] = target: Prostacyclin receptor (Homo sapiens, UniProt P43119); assay: Binding affinity to IP receptor
[10] = target: T5, Thromboxane A2 receptor (Homo sapiens, UniProt P21731); assay: Binding affinity to TP receptor
T5 sequence (P21731 whole entry): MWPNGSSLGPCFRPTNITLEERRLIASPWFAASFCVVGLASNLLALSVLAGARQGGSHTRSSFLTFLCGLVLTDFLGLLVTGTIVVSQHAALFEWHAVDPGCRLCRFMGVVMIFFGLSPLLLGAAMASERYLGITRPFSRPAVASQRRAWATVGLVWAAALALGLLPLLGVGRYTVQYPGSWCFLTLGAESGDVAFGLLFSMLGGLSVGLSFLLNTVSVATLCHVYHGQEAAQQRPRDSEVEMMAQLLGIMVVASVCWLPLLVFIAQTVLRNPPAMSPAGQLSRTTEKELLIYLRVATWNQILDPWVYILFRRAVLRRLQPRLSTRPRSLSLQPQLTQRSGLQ

[11] = target: T1, Prostaglandin E2 receptor EP4 subtype; assay: Antagonist activity at human EP4 receptor in HEK293 cells by cell-based functional assay

T1 sequence (P35408 whole entry): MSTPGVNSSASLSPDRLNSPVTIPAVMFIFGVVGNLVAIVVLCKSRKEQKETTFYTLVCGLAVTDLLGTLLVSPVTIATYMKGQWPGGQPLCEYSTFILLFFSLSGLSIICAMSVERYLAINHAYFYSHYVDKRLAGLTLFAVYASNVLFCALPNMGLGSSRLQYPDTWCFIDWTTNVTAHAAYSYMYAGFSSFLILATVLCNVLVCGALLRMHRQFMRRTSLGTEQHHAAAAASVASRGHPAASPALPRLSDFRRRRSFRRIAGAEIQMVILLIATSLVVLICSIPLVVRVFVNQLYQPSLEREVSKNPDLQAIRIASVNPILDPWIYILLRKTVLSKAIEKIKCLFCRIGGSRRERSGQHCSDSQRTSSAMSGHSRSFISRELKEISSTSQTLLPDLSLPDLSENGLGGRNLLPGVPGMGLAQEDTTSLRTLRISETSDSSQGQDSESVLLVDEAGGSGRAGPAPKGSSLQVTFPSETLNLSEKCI
Prostacyclin receptor, sequence (P43119 whole entry): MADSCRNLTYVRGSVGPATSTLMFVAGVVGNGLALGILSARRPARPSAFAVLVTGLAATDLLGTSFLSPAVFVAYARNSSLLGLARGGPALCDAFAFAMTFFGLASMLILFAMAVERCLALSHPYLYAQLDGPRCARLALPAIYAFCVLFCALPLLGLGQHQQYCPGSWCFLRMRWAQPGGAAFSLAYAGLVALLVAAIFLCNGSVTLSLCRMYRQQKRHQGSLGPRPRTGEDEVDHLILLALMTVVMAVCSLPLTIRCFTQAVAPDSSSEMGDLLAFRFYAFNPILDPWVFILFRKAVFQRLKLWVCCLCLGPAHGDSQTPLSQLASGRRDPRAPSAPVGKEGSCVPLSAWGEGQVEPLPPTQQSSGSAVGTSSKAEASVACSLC
Prostaglandin F2-alpha receptor, sequence (P43088 whole entry): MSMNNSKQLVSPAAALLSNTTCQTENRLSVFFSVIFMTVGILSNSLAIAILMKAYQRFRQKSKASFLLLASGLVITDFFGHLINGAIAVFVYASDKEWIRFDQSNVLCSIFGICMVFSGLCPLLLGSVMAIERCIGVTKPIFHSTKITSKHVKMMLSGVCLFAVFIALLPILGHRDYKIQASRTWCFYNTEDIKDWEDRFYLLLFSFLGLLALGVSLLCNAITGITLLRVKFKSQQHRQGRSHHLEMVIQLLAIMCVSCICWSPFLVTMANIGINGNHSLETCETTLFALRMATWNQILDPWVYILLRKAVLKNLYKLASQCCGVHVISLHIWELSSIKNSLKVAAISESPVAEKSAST
Prostaglandin E2 receptor EP2 subtype, sequence (P43116 whole entry): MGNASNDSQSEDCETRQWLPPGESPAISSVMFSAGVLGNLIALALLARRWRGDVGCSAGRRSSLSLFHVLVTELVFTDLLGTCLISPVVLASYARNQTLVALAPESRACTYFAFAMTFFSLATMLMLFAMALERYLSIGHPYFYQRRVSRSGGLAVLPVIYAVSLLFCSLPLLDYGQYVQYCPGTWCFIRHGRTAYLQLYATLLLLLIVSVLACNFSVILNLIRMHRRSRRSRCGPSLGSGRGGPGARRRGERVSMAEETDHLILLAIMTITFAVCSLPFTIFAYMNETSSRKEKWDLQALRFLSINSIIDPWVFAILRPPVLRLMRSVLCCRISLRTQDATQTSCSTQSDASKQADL

| SMILES | Ki [1] [nM] | Ki [2] [nM] | other results |
| --- | --- | --- | --- |
| Cc1cc(C)c2sc(C(=O)N(C)C)c(-c3ccc(CCNC(=O)OC(C)(C)C)cc3)c2c1 | 68 | 1990 |  |
| CNC(=O)c1sc2c(C)cc(C)cc2c1-c1ccc(CCNC(=O)NS(=O)(=O)c2ccc(C)cc2)cc1 | 0.5 | 134 |  |
| COC(=O)c1sc2c(C)cc(C)cc2c1-c1ccc(CCNC(=O)NS(=O)(=O)c2ccc(C)cc2)cc1 | 0.97 | 39 |  |
| Cc1ccc(S(=O)(=O)NC(=O)NCCc2ccc(-c3c(C(=O)N(C)C)sc4c(Cl)cc(C(F)(F)F)cc34)cc2)cc1 | 0.55 | 8.7 |  |
| Cc1ccc(S(=O)(=O)NC(=O)NCCc2ccc(-c3c(C(=O)N(C)C)sc4c(C)ccc(C)c34)cc2)cc1 | 0.77 | 19 |  |
| Cc1ccc(S(=O)(=O)NC(=O)NCCc2ccc(-c3c(C(=O)N(C)C)sc4c(F)cc(F)cc34)cc2)cc1 | 0.53 | 40 |  |
| Cc1cc(C)c2sc(C(=O)N(C)C)c(-c3ccc(CCNc4ncccn4)cc3)c2c1 | 0.98 | 42 |  |
| Cc1cc(C)c2sc(C(=O)N(C)C)c(-c3ccc(CCNC(=O)NS(=O)(=O)c4ccccc4Cl)cc3)c2c1 | 0.42 | 2.7 |  |
| Cc1ccc(S(=O)(=O)NC(=O)NCCc2ccc(-c3c(C(=O)N4CCCC4)sc4c(C)cc(C)cc34)cc2)cc1 | 0.41 | 11 |  |
| Cc1ccc(S(=O)(=O)NC(=O)NCCc2ccc(-c3c(C(=O)N(C)C)sc4c(Cl)cc(Cl)cc34)cc2)cc1 | 0.59 | 17 |  |
| Cc1cc(C)c2sc(C(=O)N(C)C)c(-c3ccc(CCNC(=O)Cc4ccccn4)cc3)c2c1 | 2.3 | 40 |  |
| Cc1ccc(S(=O)(=O)NC(=O)NCCc2ccc(-c3c(C(N)=O)sc4c(C)cc(C)cc34)cc2)cc1 | 3.8 | 650 |  |
| Cc1ccc(S(=O)(=O)NC(=O)NCCc2ccc(-c3c(C(=O)N(C)C)sc4c(C)cc(C)cc34)cc2)cc1 | 0.54 | 1.4 | Ki [3]: > 9500 nM; Ki [4]: 3330 nM; Ki [5]: 530 nM; Ki [6]: > 7230 nM; Ki [7]: 73 nM; Ki [8]: > 8700 nM; Ki [9]: > 7700 nM; Ki [10]: 61 nM; IC50 [11]: 1.2 nM |
| COc1ccccc1C1(C(=O)NCCc2ccc(-c3c(C(=O)N(C)C)sc4c(C)cc(C)cc34)cc2)CC1 | 3 | 17 |  |
| Cc1cc(C)c2sc(C(=O)N(C)C)c(-c3ccc(CCNC(=O)Cc4c(Cl)cccc4Cl)cc3)c2c1 | 1.6 | 17 |  |
| COc1ccccc1CC(=O)NCCc1ccc(-c2c(C(=O)N(C)C)sc3c(C)cc(C)cc23)cc1 | 0.2 | 3.4 | IC50 [11]: 2.4 nM |
| Cc1cc(C)c2sc(C(=O)N(C)C)c(-c3ccc(-c4nn[nH]n4)cc3)c2c1 | 160 | 2300 |  |
| Cc1cc(C)c2sc(C(=O)N(C)C)c(-c3ccc(CCNC(=O)NS(=O)(=O)c4ccc(Cl)cc4)cc3)c2c1 | 0.4 | 2.2 |  |
